Laboratory results from patent US20060121116A1, “Hydrogel for cell separation and method of separating cells” (priority 2003, published 2006).

Test system: human peripheral blood leucocytes
Assay: Migration capability of neutrophils: fMLP in soft agar under hydrogel layer
Assay type: cell-based
Conditions: for Number of Cells in Hydrogel of the Invention: 37° C., 3 hours, 10^7 leucocytes applied; for Number of Cells in Soft Agar: microscopically observed
Protocol: Soft agar mediums (prepared by dissolving Nacalai Tesque's soft agar powder in a D′MEM (Dulbecco's Modification Eagle's Medium, by GIBCO, containing 10% FCS (Fetal Calf Serum)) having 0.6% of concentration and each containing 0 M, 10^−6 M, 10^−7 M or 10^−8 M of fMLP (N-formyl-methionyl-leucyl-phenylalanine, molecular weight 437.6, chemotactic peptide, produced by Sigma) were prepared at 42° C. Each medium was put into a polystyrene dish (mfd. by SOMILON) having a diameter of 35 mm in an amount of 1 ml (depth of medium, about 1 mm) each, and gelled therein at room temperature. The hydrogel-forming polymer (TGP-5) of the invention obtained in Production Example 7 was sterilized with EOG in the same manner as in Production Example 4. One g of the polymer was dissolved in 9 g of D′MEM medium at 4° C., and this was put on the above-mentioned soft agar gel in an amount of 0.5 ml (depth of the polymer solution, about 0.5 mm) each, and gelled at room temperature. The sol-gel transition temperature of the hydrogel was 18° C. On the hydrogel layer of the invention, a tissue culture insert (mfd. by NUNC) with a filter having a pore size of 8.0 μm was set, and 0.5 ml of a cell suspension containing 10^7 human peripheral blood leucocytes was put into the insert and set in an incubator at 37° C. This was statically set therein at 37° C. for 3 hours, and then the dish was taken out of the incubator. The dish was cooled on ice, the tissue culture insert was removed, and the hydrogel of the invention was converted into a sol state. The hydrogel of the invention that was liquid with cooling with ice was collected, diluted with physiological saline and centrifuged (3000 rpm, 5 minutes). The precipitated cell were re-suspended in 20 μl of physiological saline, and the number of the cell was counted to thereby determine the number of the neutrophils having moved into the hydrogel of the invention. After the hydrogel of the invention was removed, the number of the cell having moved into the soft agar was microscopically observed, and the result is shown in Table 1.

[1] = fMLP concentration in soft agar 10^−6 M
[2] = fMLP concentration in soft agar 10^−7 M
[3] = fMLP concentration in soft agar 10^−8 M

Q: How did the “Number of Cells in Hydrogel of the Invention” value (shortened to “Number … of the Invention”) [1] turn out when `CSCC[C@H](NC=O)C(=O)N[C@@H](CC(C)C)C(=O)N[C@@H](Cc1ccccc1)C(=O)O` [fMLP, N-formyl-methionyl-leucyl-phenylalanine] was run?
A: The value was 300.

Q: And the “Number of Cells in Soft Agar” value [1]?
A: The value was “numerous”.

Q: What about the “Number … of the Invention” value [2] of the same compound?
A: The value was 17,600.

Q: What about the “Number of Cells in Soft Agar” value [2] of the same compound?
A: Its value is “many”.

Q: And the “Number … of the Invention” value [3]?
A: Its value is 4,740.

Q: What about the “Number of Cells in Soft Agar” value [3] of the same compound?
A: The value was “a few”.
